Source: US6774143B1, “Method for treating cells resistant to antineoplastic agents” (Novartis AG, priority 2003, dated 2004)
Values after ≈ are worked out from the molar mass of the structure shown.

Key:
[1] = test system: 1A9PTX22 cells (β-tubulin mutation); assay: In vitro cytotoxicity assay (MTT); type: cell-based, human
Description: (§1) 1A9 and 1A9PTX22 cells are plated in 96-well plates at 5×10^4 cells/well, plced in a tissue culture incubator and allowed to attach overnight. The next morning, the number of viable cells in the “time 0” plate (3 wells for each cell line) is determined using an MTT assay (Alley M C, et al., Cancer Res. 1988, 48:589-601).
(§2) At the same time drugs are added in serial, 10-fold dilutions, to the experimental plates. Corresponding vehicles are added to control plates. Experimental and control plates are then incubated in the tissue culture incubator for 72 hours. After the incubation the number of viable cells is determined in each plate using the MTT assay. IC50s (defined as a concentration of a given compound causing 50% inhibition of cell growth) are determined by comparing cell growth in the drug-treated plate (T−T0) to the cell growth in the corresponding control plate (C−T0). For each experiment results are calculated using average numbers from two sets of plates.
(§3) Discodermolide is isolated from the sponge Discodermia dissoluta using the method of Gunasekera SP (supra). Multiple batches of compound of similar purity (all>95% pure, as determined by mass spectrometry, and nuclear magnetic resonance analysis) are used throughout the various studies. For the in vitro cytotoxicity assays all compounds are dissolved in DMSO and are added to the plates with cells to obtain desired concentrations. […] Paclitaxel is purchased from Sigma/Aldrich, (St. Louis, Mo.). For the in vivo hollow fiber assay, solid discodermolide is dissolved in pure ethanol to create a stock solution which is diluted just before dosing with Cremophor EL and D5W to a final concentration of 16.7% Cremophor EL, 8.3% ethanol and 75% D5W. The compound is administered to mice as a single, 15 mg/kg iv injection. Positive control animals receive clinical formulations of paclitaxel (TAXOL) diluted 4-fold with D5W (12.5% Cremophor El, 12.5% ethanol and 75% D5W final concentrations) and administered iv, at 15 mg/kg, once daily for five consecutive days. Vehicle controls are administered according to the corresponding drug schedules.

1A9 cells = assay: In vitro cytotoxicity assay (MTT); type: cell-based; conditions: Homo sapiens, 1A9, 1A9 cells; cytotoxic control; experiment not specified; read-out: IC50
Description: as §1, §2, §3

In the case of `COc1cccc2c1C(=O)c1c(O)c3c(c(O)c1C2=O)C[C@@](O)(C(=O)CO)C[C@@H]3O[C@H]1C[C@H](N)[C@H](O)[C@H](C)O1` [Doxorubicin], the IC50 ([1]; Homo sapiens, 1A9/ptx-22, 1A9PTX22 cells, cytotoxic control, experiment not specified, read-out: IC50) is reported as 3 to 5 ng/mL (≈ 5.52 to 9.2 nM), the “fold resistance of 1A9PTX22 versus parental 1A9” value ([1]; from IC50s of the two in vitro experiments) is reported as 2 fold and the IC50 (1A9 cells) is reported as 3 ng/mL (≈ 5.52 nM).
